Laboratory results published in paper PMC6414531, “Contrasting in vitro and in vivo methanol oxidation activities of lanthanide-dependent alcohol dehydrogenases XoxF1 and ExaF from Methylobacterium extorquens AM1” (Scientific Reports, 2019).

How the values were obtained:
XoxF1 MDH (XoxF1-La) [1] = biological target: T1, XoxF1 MDH (XoxF1-La) (Methylorubrum extorquens, UniProt C5B120); experiment: UV-visible spectroscopy of purified enzyme; format: binding; conditions: co-purified prosthetic group
T1 construct: C-terminal hexahistidine tag with rTEV site, tag cleaved; 1:1 La3+ per protomer, PQQ-containing
T1 sequence (C5B120 22-601): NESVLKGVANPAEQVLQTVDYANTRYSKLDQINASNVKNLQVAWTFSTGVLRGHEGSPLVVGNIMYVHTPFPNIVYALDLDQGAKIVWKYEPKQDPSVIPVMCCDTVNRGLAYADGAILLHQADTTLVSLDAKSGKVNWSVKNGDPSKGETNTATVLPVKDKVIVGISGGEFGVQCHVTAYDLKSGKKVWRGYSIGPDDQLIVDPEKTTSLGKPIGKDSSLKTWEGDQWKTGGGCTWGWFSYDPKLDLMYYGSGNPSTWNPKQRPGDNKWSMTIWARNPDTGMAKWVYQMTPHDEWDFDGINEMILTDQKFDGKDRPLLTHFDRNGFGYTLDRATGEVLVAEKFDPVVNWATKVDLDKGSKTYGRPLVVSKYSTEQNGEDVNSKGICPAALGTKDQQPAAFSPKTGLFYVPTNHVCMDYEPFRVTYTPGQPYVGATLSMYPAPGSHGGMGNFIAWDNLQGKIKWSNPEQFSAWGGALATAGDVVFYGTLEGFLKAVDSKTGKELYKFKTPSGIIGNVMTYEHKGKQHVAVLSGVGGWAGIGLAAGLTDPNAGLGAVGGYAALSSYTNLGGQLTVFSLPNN

XoxF1 MDH (XoxF1-La) [2] = biological target: T1, XoxF1 MDH (XoxF1-La); experiment: PMS-mediated DCPIP reduction at […] nm, Michaelis-Menten fit; format: biochemical; conditions: La3+-loaded enzyme (1:1), PQQ; PMS/DCPIP as electron acceptors
[3] = biological target: T2, ExaF (ExaF-La, Ln-dependent ethanol dehydrogenase) (Methylorubrum extorquens, UniProt C5AXV8); experiment: PMS-mediated DCPIP reduction in cell-free extract; format: biochemical; conditions: MDH-3 mutant strain (lacks MxaF, XoxF1, XoxF2), grown with methanol and La3+
T2 construct: native enzyme in cell-free extract of MDH-3 mutant grown with methanol and La3+
T2 sequence (C5AXV8 27-587): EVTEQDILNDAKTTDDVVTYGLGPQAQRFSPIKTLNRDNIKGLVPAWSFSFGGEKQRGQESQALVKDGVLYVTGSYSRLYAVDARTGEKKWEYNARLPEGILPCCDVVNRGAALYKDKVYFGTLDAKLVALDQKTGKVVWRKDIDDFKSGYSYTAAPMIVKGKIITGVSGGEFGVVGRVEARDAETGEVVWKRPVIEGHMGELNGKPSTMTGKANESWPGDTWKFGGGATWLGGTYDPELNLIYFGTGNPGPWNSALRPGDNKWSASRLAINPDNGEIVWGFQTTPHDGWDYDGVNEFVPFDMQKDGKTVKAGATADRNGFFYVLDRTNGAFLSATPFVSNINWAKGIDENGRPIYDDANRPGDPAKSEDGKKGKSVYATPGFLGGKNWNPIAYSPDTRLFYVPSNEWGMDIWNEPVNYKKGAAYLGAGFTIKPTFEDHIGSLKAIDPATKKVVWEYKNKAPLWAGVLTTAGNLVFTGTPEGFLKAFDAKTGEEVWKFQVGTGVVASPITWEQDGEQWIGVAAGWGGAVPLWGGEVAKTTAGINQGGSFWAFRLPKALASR

purified protein = substrate: CCO; experiment: purified protein; conditions: La3+-loaded enzyme (1:1), PQQ; PMS/DCPIP as electron acceptors

**Q.** For `O=C(O)c1cc(C(=O)O)c2c(n1)C(=O)C(=O)c1cc(C(=O)O)[nH]c1-2` [PQQ], which molar ratio (XoxF1 MDH (XoxF1-La) [1]) is on record?
**A.** The molar ratio was “PQQ was detected as a prosthetic group via UV-visible spectroscopy”.

**Q.** For `CO` [methanol], which Km (XoxF1 MDH (XoxF1-La) [2]) is on record?
**A.** Its Km is 0.044 ± 0.005 mM.

**Q.** How did the specific activity [3] turn out when `C=O` [formaldehyde] was run?
**A.** The specific activity was “confirming that ExaF can oxidize formaldehyde in vivo”.

**Q.** And the Km (XoxF1 MDH (XoxF1-La) [2])?
**A.** Its Km is 0.096 ± 0.006 mM.

B1: XoxF1 MDH (XoxF1-La) (Methylorubrum extorquens AM1) (protein)
chain: NESVLKGVANPAEQVLQTVDYANTRYSKLDQINASNVKNLQVAWTFSTGVLRGHEGSPLVVGNIMYVHTPFPNIVYALDLDQGAKIVWKYEPKQDPSVIPVMCCDTVNRGLAYADGAILLHQADTTLVSLDAKSGKVNWSVKNGDPSKGETNTATVLPVKDKVIVGISGGEFGVQCHVTAYDLKSGKKVWRGYSIGPDDQLIVDPEKTTSLGKPIGKDSSLKTWEGDQWKTGGGCTWGWFSYDPKLDLMYYGSGNPSTWNPKQRPGDNKWSMTIWARNPDTGMAKWVYQMTPHDEWDFDGINEMILTDQKFDGKDRPLLTHFDRNGFGYTLDRATGEVLVAEKFDPVVNWATKVDLDKGSKTYGRPLVVSKYSTEQNGEDVNSKGICPAALGTKDQQPAAFSPKTGLFYVPTNHVCMDYEPFRVTYTPGQPYVGATLSMYPAPGSHGGMGNFIAWDNLQGKIKWSNPEQFSAWGGALATAGDVVFYGTLEGFLKAVDSKTGKELYKFKTPSGIIGNVMTYEHKGKQHVAVLSGVGGWAGIGLAAGLTDPNAGLGAVGGYAALSSYTNLGGQLTVFSLPNN
**Q.** For B1, which Km (purified protein) is on record?
**A.** Its Km is 67 ± 3 µM.

**Q.** And the Vmax (purified protein)?
**A.** Its Vmax is 6.21 µmol/min/mg.

**Q.** And the kcat/Km (purified protein)?
**A.** The kcat/Km was 194000 M⁻¹ s⁻¹.
